The source of these data is patent US11311609B2, “Regulating chimeric antigen receptors” (DANA-FARBER CANCER INSTITUTE, INC., priority 2017, dated 2022).

What all share (assay type): cell-based
For one assay, the system named is IL-2. As to the kind of experiment: IL-2 ELISA of co-culture supernatants of SMART-CAR expressing Jurkat T-cells. The settings on record: CD19 positive Raji cells; 1:3 ratio; 4 hours; 250 nM dFKBP7. Here is the method:
FIG. 35 is a histogram bar plot quantifying IL-2 levels produced from SMART-CAR expressing Jurkat T-cells after co-incubation with antigen expressing K562 cells in a 1:3 ratio (T cell to K562 cell) for 24 hours as described in Example 29. IL-2 levels were quantified by ELISA using co-culture supernatants.
FIG. 36 is a histogram bar plot quantifying IL-2 levels produced from SMART-CAR expressing Jurkat T-cells after co-incubation with CD19 positive Raji cells in a 1:3 ratio (T cells to Raji cells) for 4 hours.
FIG. 35 illustrates the specificity in activation of SMART-CAR expressing T-cells for CD19 expressing target tumor cells. SMART-CAR expressing Jurkat T-cells were co-incubated with antigen expressing K562 cells in a 1:3 ratio (T cell to K562 cell) for 24 hours. IL-2 levels were quantified by ELISA using co-culture supernatants.
FIG. 36 illustrates the chemical control of SMART-CAR expressing T-cell activation using the hetero bifunctional molecule dFKBP7. SMART-CAR expressing Jurkat T-cells were co-incubated with CD19 positive Raji cells in a 1:3 ratio.
In general terms: In an ELISA, binding on a coated surface is turned into a signal by an enzyme label.

The subject of a further assay is FKBP* fused to Nluc. As to the kind of experiment: Nluc/Fluc luciferase signal ratio assay of FKBP* degradation in 293FT cells. The settings on record: wild type or CRBN-/- 293FT cells; indicated concentrations, 4 hours. Here is the method:
FIG. 7A and FIG. 7B are graphs measuring the activity of a panel of dFKBP heterobifunctional compounds in cells expressing FKBP* fused to Nluc. Degradation of FKBP* is measured as a signal ratio (Nluc/Fluc) between NANOluc and firefly luciferase from the same multicistronic transcript in wild type (FIG. 7A) or CRBN −/− (FIG. 7B) 293FT cells treated with indicated concentrations of dFKBPs for 4 hours. A decrease in the signal ratio indicates FKBP* (Nluc) degradation. Additional experimental details are provided in Example 4.
In an effort to identify potent and selective dFKPB heterobifunctional compounds, high throughput measurements of targeted FKBP* degradation were measured by surrogate levels of luciferase. Here, FKBP* is exogenously expressed as a multicistronic transcript with two types of luciferase: nano luciferase (NLuc) and firefly luciferase (FLuc) that allow for cell normalized quantification of FKBP* protein levels. Degradation of FKBP* is measured as a signal ratio (Nluc/Fluc) in wild type (FIG. 7A) or CRBN −/− (FIG. 7B) 293FT cells treated with indicated concentrations of dFKBPs for 4 hours.

The subject of assay [1] is CD19 positive tumor cells (Daudi, Raji). As to the kind of experiment: Co-culture depletion of CD19 positive tumor cells by SMART-CAR expressing Jurkat T-cells, flow cytometry with CD19-FITC antibody. The method, then:
FIG. 28 is a schematic depicting the experimental setup used in FIG. 18 to evaluate the ability of SMART-CAR expressing Jurkat cells to deplete CD19-positive tumor cells. SMART-CAR expressing Jurkat cells are incubated with CD19-positive target tumor cells at the indicated ratio for a given amount of time (Example 25). CD19-positive target tumor cell depletion can be monitored by measuring levels of CD19.
FIG. 30 is a schematic depicting the experimental setup used in FIG. 21 and described in Example 26 to illustrate the chemical control of SMART-CAR expression and subsequent activity against CD19 positive tumor cells using dFKBP7. SMART-CAR expressing Jurkat cells were pretreated with dFKBP7 at 250 nM for 4 hours to allow for maximal degradation of SMART-CAR. The Jurkat cells were then harvested and washed three times to remove dFKBP7. Jurkat cells were split into two experimental arms. The first arm (top, blue) was treated with DMSO control and the second arm (bottom, green) was retreated with 250 nM dFKBP7. The two experimental arms were then mixed at a 1:1 ratio with CD19 positive tumor cells and CD19-positive tumor cells monitored by flow cytometry.
FIG. 33 is a line plot tracking CD19 positive tumor cells during alternating exposure and removal of 250 nM of dFKBP7 in a 30 hour time course. […]
FIG. 28 illustrates the experimental design to evaluate the functionality of SMART-CAR expressing Jurkat T-cells to deplete CD19 positive target tumor cells. […] Co-cultured cells were pelleted, stained with a CD19-FITC antibody, fixed, and CD19 levels measured via flow cytometry.
SMART-CAR expressing Jurkat cells were pretreated with dFKBP7 at 250 nM for 4 hours to allow for maximal degradation of SMART-CAR. […] The two experimental arms were then mixed at a 1:1 ratio with CD19 positive tumor cells and CD19-positive tumor cells monitored by flow cytometry. […]
FIG. 32 is a graph that exemplifies the linear relationship between number of SMART-CAR expressing T-cells and functional killing of CD19 positive target tumor cells. […] CD19 positive tumor cells were then quantified using flow cytometry with a directly conjugated CD19-FITC antibody. […]
For orientation: Flow cytometry measures light scatter and fluorescence of single cells or particles in a stream.

Consider `CC[C@H](C(=O)N1CCCC[C@H]1C(=O)O[C@H](CCc1ccc(OC)c(OC)c1)c1cccc(OCC(=O)NCCCOCCOCCOCCCNC(=O)COc2cccc3c2C(=O)N(C2CCC(=O)NC2=O)C3=O)c1)c1cc(OC)c(OC)c(OC)c1` (stereo partly drawn) [dFKBP7], for which, in the assay on IL-2, the IL-2 production entry is “completely suppressed”. Moreover, the “FKBP* (Nluc) degradation, signal ratio Nluc/Fluc” value in the assay with FKBP* fused to Nluc is “effectively degrade FKBP* in a cereblon dependent manner”. Further, the “CD19 positive target tumor cell depletion in the presence of dFKBP7” value in assay [1] (1:3 ratio, 250 nM, 4 HR to 24 HR) is recorded as “halted”. For the same molecule, in assay [1] (1:3 ratio, 24 HR-30 HR), the “CD19 positive target tumor cell depletion after removal of dFKBP7” value is “rapid target tumor cell depletion”. The “Daudi cell depletion, dose response” value in assay [1] (CD19 positive Daudi cells, 1:3 ratio, 24 hours, indicated concentrations) is “Daudi cell depletion was rescued”. Moreover, the “CD19 positive tumor cells” value in assay [1] (Daudi and Raji, 1:1 ratio, retreatment with 250 nM dFKBP7) is listed as “not affected”.
